Some test systems named below: 786-0 renal; COLO 205 colon; HCT-15 colon; HS 578T breast; HT29 colon; K-562 leukemia; M14 melanoma; SK-OV-3 ovarian; SN12C renal; SNB-75 CNS.
Common to all, as to test: growth of human tumour cells (NCI), 48 h

Structures are written as SMILES. Values joined by “and” are separate entries in the source; they are usually repeats but may differ in a detail not shown here. Equal values may be shown once.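 Step 1: Grow cells in 96-well plates. Step 2: Expose to compound for 48 hours at 5 concentrations. Step 3: Interpolate endpoints linearly; if unreached, use highest concentration. GI50 marks 50% less growth. TGI: concentration producing complete growth inhibition.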

Regarding `Cc1ccc(C2=NN(c3ccc(S(=O)(=O)NC(=O)NCc4ccccc4)cc3)C(c3ccc(N(C)C)cc3)C2)c(C)c1` (stereo not given), the GI50 in the test on 786-0 renal is 4.37 µM; in the test with COLO 205 colon it was 3.71 µM; in the test with HCT-15 colon, 3.27 µM; in the test on HS 578T breast it was 2.48 µM; with HT29 colon, 4.53 µM; with K-562 leukemia, 3.51 µM. Besides, the GI50 in the test on M14 melanoma is 3.57 µM; in the test with SK-OV-3 ovarian, 8.43 µM; with SN12C renal, 3.35 µM; in the test on SNB-75 CNS it was 2.44 µM. The TGI with 786-0 renal was 36.1 µM; in the test with COLO 205 colon, 10.4 µM; in the test with HCT-15 colon it was over 100 µM; in the test on HS 578T breast, 7.02 µM; in the test with HT29 colon, 19.1 µM; in the test on K-562 leukemia it was over 100 µM. Further, the TGI is 23.4 µM in the test on M14 melanoma, over 100 µM in the test on SK-OV-3 ovarian, 61.5 µM with SN12C renal and over 100 µM with SNB-75 CNS.

For `COc1ccc(N=Nc2ccc(O)c(=O)cc2)cc1`, the GI50 was 3.07 µM in the test on 786-0 renal; 7.07 µM with COLO 205 colon; 2.55 µM in the test on HCT-15 colon; 4.41 µM in the test with HS 578T breast; 4.83 µM in the test on HT29 colon; 3.69 µM in the test with K-562 leukemia. Further, the GI50 was 2.22 µM in the test with M14 melanoma, 4.58 µM with SK-OV-3 ovarian, 2.82 µM in the test on SN12C renal and 3.43 µM in the test on SNB-75 CNS. For the same molecule, the TGI is over 100 µM with 786-0 renal; over 100 µM with COLO 205 colon; over 100 µM with HCT-15 colon; over 100 µM with HS 578T breast; 49.7 µM in the test with HT29 colon; over 100 µM in the test on K-562 leukemia. Further, the TGI with M14 melanoma was 7.42 µM; in the test with SK-OV-3 ovarian, over 100 µM; in the test on SN12C renal it was over 100 µM; in the test with SNB-75 CNS, over 100 µM.

For the molecule `COc1ccc2[nH]c(C(=O)OCc3ccc4c(Br)cc(Br)c(O)c4n3)cc2c1`, the GI50 with 786-0 renal is 1.23 µM; in the test on COLO 205 colon, 0.442 µM; with HCT-15 colon, 0.355 µM; with HS 578T breast, 1.66 µM; with HT29 colon, 0.39 µM; in the test on K-562 leukemia it was 0.495 µM. Further, the GI50 with M14 melanoma was 0.83 µM; with SK-OV-3 ovarian, 3.16 µM; with SN12C renal, 0.617 µM; in the test on SNB-75 CNS it was 0.307 µM. The TGI in the test with 786-0 renal was 2.61 µM; in the test with COLO 205 colon it was 1.92 µM; in the test on HCT-15 colon it was 1.23 µM; in the test on HS 578T breast, 4.97 µM; in the test with HT29 colon, 1.49 µM; in the test on K-562 leukemia it was 4.94 µM. The TGI with M14 melanoma turned out to be 2.29 µM; with SK-OV-3 ovarian, 14.4 µM; in the test on SN12C renal, 2.02 µM; in the test on SNB-75 CNS, 1.73 µM.

In the case of `CN1C(=O)C(N=Nc2ccc([N+](=O)[O-])cc2)SC1=S` (stereo not given), the GI50 in the test with 786-0 renal is 8.12 µM and 10.7 µM; with COLO 205 colon it was 4 µM and 10 µM; in the test on HCT-15 colon, 2.63 µM and 6.8 µM; with HS 578T breast, 2.47 µM and 16.2 µM; with HT29 colon, 3.63 µM and 10.8 µM; in the test on K-562 leukemia, 0.625 µM and 2.17 µM. The GI50 is 7.61 µM and 19.2 µM with M14 melanoma; 7.51 µM and 11.2 µM in the test on SK-OV-3 ovarian; 4.39 µM and 9.34 µM with SN12C renal; 3.23 µM and 16.1 µM with SNB-75 CNS. Besides, the TGI with 786-0 renal was 80 µM and 58.2 µM; with COLO 205 colon, 18 µM and 23 µM; in the test with HCT-15 colon, over 100 µM; with HS 578T breast it was 22.5 µM and > 100 µM; in the test with HT29 colon, 33.7 µM and > 100 µM; with K-562 leukemia, over 100 µM. In addition, the TGI is over 100 µM in the test on M14 melanoma; 74.4 µM and 51.5 µM in the test with SK-OV-3 ovarian; > 100 µM and 75.9 µM in the test with SN12C renal; 67.2 µM and 89.1 µM in the test with SNB-75 CNS.

With `O=C(O)CN1C(=O)OC(c2ccccc2)C1=O` (stereo not given), the TGI in the test on 786-0 renal, in the test with COLO 205 colon, with HCT-15 colon, in the test with HS 578T breast, in the test with HT29 colon and in the test on K-562 leukemia was over 100 µM in each case. Besides, the TGI in the test on M14 melanoma, in the test with SK-OV-3 ovarian, with SN12C renal and with SNB-75 CNS was over 100 µM throughout.

In the case of `Clc1nc(Cl)c2ncn(-c3ccccc3)c2n1`, the GI50 was 5.51 µM in the test with 786-0 renal; 3.4 µM with COLO 205 colon; 3.42 µM with HCT-15 colon; 7.13 µM in the test on HS 578T breast; 3.87 µM in the test on HT29 colon; 2.61 µM in the test on K-562 leukemia. Further, the GI50 in the test with M14 melanoma is 1.86 µM; in the test with SK-OV-3 ovarian, 12.5 µM; in the test on SN12C renal it was 7.45 µM; in the test on SNB-75 CNS, 2.93 µM. Also, the TGI with 786-0 renal was found to be 18.3 µM; with COLO 205 colon, 13.5 µM; in the test on HCT-15 colon it was 16 µM; in the test on HS 578T breast, 64.9 µM; in the test on HT29 colon, 13.5 µM; in the test with K-562 leukemia, 7.05 µM. Further, the TGI with M14 melanoma was determined as 3.85 µM; in the test with SK-OV-3 ovarian it was 25 µM; with SN12C renal, 21.5 µM; in the test on SNB-75 CNS, 13.9 µM.

Take `CC(C)(C)N1CC1CNC(=O)C(=O)NCC1CN1C(C)(C)C` (stereo not given): the TGI in the test with 786-0 renal was 4.31 µM; with COLO 205 colon it was 8.5 µM; in the test with HCT-15 colon, 10.5 µM; with HS 578T breast, over 100 µM; in the test on HT29 colon, 19.1 µM; with K-562 leukemia it was 15 µM. In addition, the TGI is 16.6 µM in the test with M14 melanoma, 13.4 µM in the test with SK-OV-3 ovarian, 15.7 µM in the test with SN12C renal and 13.2 µM with SNB-75 CNS.

Take `Cn1cc(-c2csc(-c3ccccc3)n2)c2cccnc21`: the GI50 with 786-0 renal is 14.4 µM; with COLO 205 colon, 14 µM; in the test with HCT-15 colon it was 12.8 µM; in the test on HS 578T breast it was 11.8 µM; with HT29 colon it was 14.2 µM; in the test on K-562 leukemia, 13.9 µM. Moreover, the GI50 was 13.9 µM in the test with M14 melanoma, 18.7 µM with SK-OV-3 ovarian, 15 µM in the test on SN12C renal and 23.5 µM in the test on SNB-75 CNS. Moreover, the TGI in the test on 786-0 renal is 28.2 µM; in the test with COLO 205 colon it was 26.9 µM; with HCT-15 colon it was 31.7 µM; in the test on HS 578T breast, 35.5 µM; with HT29 colon, 27.2 µM; in the test on K-562 leukemia, 48.9 µM. The TGI in the test with M14 melanoma came out at 27.8 µM; in the test on SK-OV-3 ovarian, 43.3 µM; with SN12C renal, 28.2 µM; in the test with SNB-75 CNS, 97.6 µM.
